# Laboratory results: patent US11827624B2, “Covalent immune recruiter compounds for immune cell recognition and associated uses” (McMaster University, priority 2020, dated 2023)
# Tested on: PSMA+LNCaP cells
# Assay: Flow cytometry ADCP assay with mmAb on LNCaP cells
# Assay type: cell-based, human
# From the text: ADCP flow cytometry experiments were run on a BD LSRII Flow Cytometer. The human IgG isotype control used was purchased from Jackson ImmunoResearch (009-000-003). The human IgG1 monoclonal anti-DNP antibody (mAb) was purchased from acrobiosystems (DNP-M2). PSMA expression was confirmed with an anti-PSMA antibody Alexa 647 conjugate (Novus Biologicals, Catalog #FAB4234R). For PSMA competition controls, PMPA was purchased from Sigma (SML1612). Hek-293T (PSMA+/−) cell lines were generously given by Dr. Cyril Barinka (Institute of Biotechnology CAS, Czech Republic). U937 cells were generously given by Dr. John Valliant (McMaster University, Canada). LNCaP cells were generously given by Dr. Karen Mossman (McMaster University, Canada). IFN-γ was purchased from Fischer Scientific (PHC4031). Ultra low IgG FBS was purchased from Fischer Scientific (A3381901). RPMI-1640 was purchased as a powder from Fischer Scientific (31800089) and resuspended. DMEM was purchased as a powder from Fischer Scientific (12800082) and resuspended. […]
# For preparation of effector monocytes, 24 hours prior to inducing phagocytosis U937 monocytes were seeded at 500,000 cells/mL and activated with IFN-γ ([…]). After incubation, these cells were then counted and washed twice with serum free assay media (neat RPMI). […] These cells were then counted and washed twice with serum free assay media (neat RPMI). […]
structure (smiles),measurement,value
O=C(O)CC[C@H](NC(=O)N[C@@H](CCCCNC(=O)NCCOCCOCCOCCOCCOCCOCCOCCOC(=O)n1cnc(CCNC(=O)CNc2ccc([N+](=O)[O-])cc2[N+](=O)[O-])c1)C(=O)O)C(=O)O [CIR 3],ADCP on LNCaP target cells,significant functional advantage compared to non-covalent recruitment across all antibody concentrations tested
